In one series the target is P5CR (Homo sapiens, UniProt Q96C36). The note with it: read-out: Km for P5CR activity; extracts of HEK 293 cells overexpressing P5CR, substrate P5C. As to the method: (§1) P5CS activity was measured in a reaction mixture of 50 mM Tris-HCl (pH 7.0), 0-50 mM glutamate, […], 10 mM ATP, and 0.2 mM NADPH and by monitoring the oxidation of NADPH at 340 nm. P5CR activity in the cell lysate was also determined by monitoring the oxidation of NADPH at 340 nm as described in Merrill, M. J., Yeh, G. C., and Phang, J. M. (1989) J. Biol. Chem. 264, 9352-9358, which reference is incorporated herein by reference in its entirety. Background rates for each of the above assays were determined from assays using lysates of HEK 293 cells transfected with the pcDNA3.1 vector alone. Km values for each enzyme activity were estimated by varying the concentration of the substrates and non-linear regression analysis of the initial velocity vs substrate concentration.
Chain of P5CR (Q96C36 whole entry): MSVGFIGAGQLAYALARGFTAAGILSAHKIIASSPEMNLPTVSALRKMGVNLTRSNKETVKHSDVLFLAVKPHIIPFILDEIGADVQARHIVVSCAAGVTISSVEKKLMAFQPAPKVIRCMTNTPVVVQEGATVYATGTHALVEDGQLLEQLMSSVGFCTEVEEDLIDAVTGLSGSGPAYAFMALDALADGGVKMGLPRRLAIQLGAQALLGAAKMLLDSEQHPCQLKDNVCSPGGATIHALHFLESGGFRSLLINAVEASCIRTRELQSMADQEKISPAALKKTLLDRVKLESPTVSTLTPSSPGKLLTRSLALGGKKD

The subject of series [1] is HEK 293 cells. Briefly: Cell survival of HEK 293 cells after H2O2 stress treatment (MTT assay). Type of series: cell-based, human. The conditions noted are these: for viability at 5000 µM: Homo sapiens, read-out: Cell Survival (%); for protection of cell survival against H2O2 exposure (in words): 0.5 mM H2O2, 3 h. As to the method: For stress treatments, HEK 293 cells were grown to about 80% confluence. […] For testing the protective ability of other amino acids, cells were treated for 3 h with 0.5 mM H2O2 in the absence and presence of each amino acid (5 mM). Cells overexpressing PRODH, P5CS, and P5CR were incubated with H2O2 (0.5 mM) for 3 h at 37° C. after 24 h of transfection. Mild oxidative stress treatment was performed by treating HEK 293 cells with 20 μM H2O2 for 0-24 h at 37° C. […] Percent cell survival was estimated by counting live and dead cells using the 3-(4,5-dimethylthiazol-2-yl)-2,5-diphenyltetrazolium bromide (MTT) assay according to the recommendations of the manufacturer (Promega).

In another series the target is P5CS (Homo sapiens, UniProt P54886). The conditions noted are these: read-out: Km for P5CS activity; extracts of HEK 293 cells overexpressing P5CS, substrate glutamate. The method, then:
as §1

The subject of series [2] is HEK 293 cells. The note with it: H2O2 1 mM for 3 and 6 h, 5 mM proline. The method, then:
The cell pellets were resuspended in 0.4 ml of 100 mM Tris-HCl (pH 8.5) containing 0.2% SDS, 0.2 mg/ml proteinase K and 5 mM EDTA. The cells were then incubated at 37° C. for 16 h. NaCl was next added to the cell suspension at a final concentration of 1.5 M and the nuclear debris was removed by centrifugation at room temperature. The nucleic acids in the supernatant were then precipitated using established protocols. DNA samples were analyzed by non-denaturing agarose gel electrophoresis (1.5%) and visualized by ethidium bromide staining.

For series [3], the system named is HEK 293 cells. The conditions noted are these: H2O2 1 mM, proline 5 mM; H2O2 alone 55%, no stress 6%.
Substrate in series [4]: O=C(O)[C@@H]1CCCN1
Briefly: cells, lysate or membranes named. The note with it: other: extracts of HEK 293 cells overexpressing PRODH, substrate proline; pH 7.0.

Setting [5] is: HEK293, amino acid supplement 5 mM, 0.5 mM H2O2 for 3 h at 37° C., MTT, no supplement 39, control without H2O2 97.
Setting [6] is: HEK293, 3 h, amino acid supplement 5 mM, 0.5 mM H2O2 for 3 h at 37° C., MTT, no supplement 39, control without H2O2 97.

Like-named read-outs stand apart in the source and are kept apart here.

Chain of P5CS (P54886 1-793 isoform P54886-2): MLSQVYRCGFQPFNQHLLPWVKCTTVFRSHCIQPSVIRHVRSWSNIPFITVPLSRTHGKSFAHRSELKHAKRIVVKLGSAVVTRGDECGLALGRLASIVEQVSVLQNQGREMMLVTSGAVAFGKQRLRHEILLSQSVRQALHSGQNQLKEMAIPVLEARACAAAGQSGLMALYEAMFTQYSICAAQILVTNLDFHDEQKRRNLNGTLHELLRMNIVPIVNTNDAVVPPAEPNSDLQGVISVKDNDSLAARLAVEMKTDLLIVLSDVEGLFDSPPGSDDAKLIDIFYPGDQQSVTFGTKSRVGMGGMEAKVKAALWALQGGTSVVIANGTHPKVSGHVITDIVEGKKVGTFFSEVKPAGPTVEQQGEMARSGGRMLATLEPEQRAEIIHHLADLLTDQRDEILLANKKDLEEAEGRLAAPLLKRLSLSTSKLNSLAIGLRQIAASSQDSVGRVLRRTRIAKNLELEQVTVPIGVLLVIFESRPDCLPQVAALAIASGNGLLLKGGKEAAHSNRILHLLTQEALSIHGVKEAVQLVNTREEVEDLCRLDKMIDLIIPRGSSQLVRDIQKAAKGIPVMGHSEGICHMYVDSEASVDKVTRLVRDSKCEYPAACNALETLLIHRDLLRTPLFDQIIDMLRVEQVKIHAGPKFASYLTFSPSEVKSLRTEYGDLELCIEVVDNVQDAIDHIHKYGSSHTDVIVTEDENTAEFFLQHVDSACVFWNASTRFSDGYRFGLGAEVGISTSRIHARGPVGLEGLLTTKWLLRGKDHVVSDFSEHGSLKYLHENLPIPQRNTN

In the case of `O=C(O)C1CCC=N1` (stereo not drawn) [P5C], the Km at P5CR was determined as 15 mM.
For `C[C@H](N)C(=O)O` [alanine, reference compound], the viability at 5000 µM with HEK 293 cells [1] (setting [5]) came out at 48%.
In the case of `N=C(N)NCCC[C@H](N)C(=O)O` [arginine, reference compound], the viability at 5000 µM with HEK 293 cells [1] (HEK293, 3 h) was found to be 50%.
For the molecule `NC(=O)C[C@H](N)C(=O)O` [asparagine, reference compound], the viability at 5000 µM in the series with HEK 293 cells [1] (setting [5]) worked out at 48%.
The same measure, in the same setting: the same measure for `N[C@@H](CC(=O)O)C(=O)O` [aspartate, reference compound]: 35%.
`N[C@@H](CS)C(=O)O` [cysteine]: in the series with HEK 293 cells [1] (HEK293, 3 h), the viability at 5000 µM is 68%. In the series with HEK 293 cells [1] (amino acid supplement 5 mM), the “protection of cell survival against H2O2 exposure (in words)” value (“protection of cell survival” below) is “increase cell survival to almost the same level as proline”.
`N[C@@H](CCC(=O)O)C(=O)O` [glutamate, reference compound]: the “Cell Survival (%)” value in the series with HEK 293 cells [1] (amino acid supplement 5 mM, 0.5 mM H2O2 for 3 h at 37° C., MTT, no supplement 39, control without H2O2 97) is 35%. For the same molecule, the Km on P5CS is around 20 mM.
As for `NC(=O)CC[C@H](N)C(=O)O` [glutamine, reference compound], in the series on HEK 293 cells [1] (setting [5]), the viability at 5000 µM was 49%.
For the molecule `NCC(=O)O` [glycine, reference compound], in the series with HEK 293 cells [1] (setting [6]), the viability at 5000 µM came out at 33%.
Turning to `N[C@@H](Cc1c[nH]cn1)C(=O)O` [histidine], in the series with HEK 293 cells [1] (setting [5]), the viability at 5000 µM was found to be 58%. Also, in the series on HEK 293 cells [1] (amino acid supplement 5 mM), the “protection of cell survival” value is listed as “protection against H2O2 exposure”.
With `CC[C@H](C)[C@H](N)C(=O)O` [isoleucine, reference compound], in the series on HEK 293 cells [1] (setting [5]), the viability at 5000 µM stood at 42%.
Take `CC(C)C[C@H](N)C(=O)O` [leucine, reference compound]: the viability at 5000 µM in the series on HEK 293 cells [1] (setting [5]) came to 43%.
Consider `NCCCC[C@H](N)C(=O)O` [lysine], for which, in the series with HEK 293 cells [1] (HEK293, 3 h), the viability at 5000 µM is 54%.
Take `CSCC[C@H](N)C(=O)O` [methionine]: the viability at 5000 µM in the series with HEK 293 cells [1] (setting [6]) is 57%. In addition, the “protection of cell survival” value in the series on HEK 293 cells [1] (amino acid supplement 5 mM) is given as “protection against H2O2 exposure”.
With `N[C@@H](Cc1ccccc1)C(=O)O` [phenylalanine], the viability at 5000 µM with HEK 293 cells [1] (setting [5]) amounted to 51%.
Regarding `O=C(O)[C@@H]1CCCN1` [proline], the viability at 5000 µM in the series on HEK 293 cells [1] (setting [6]) is around 77%. Also, the “DNA laddering induced by H2O2” value with HEK 293 cells [2] is listed as “lack of DNA laddering”. For the same molecule, the “cell fluorescence levels (fluorescent positives, indicative of ROS)” value in the series on HEK 293 cells [3] was 10%.
In the case of `N[C@@H](CO)C(=O)O` [serine], the viability at 5000 µM in the series with HEK 293 cells [1] (setting [5]) turned out to be 58%.
For the molecule `C[C@@H](O)[C@H](N)C(=O)O` [threonine], the viability at 5000 µM in the series on HEK 293 cells [1] (setting [5]) is 59%. For the same molecule, in the series with HEK 293 cells [1] (amino acid supplement 5 mM), the “protection of cell survival” value is recorded as “protection against H2O2 exposure”.
Turning to `N[C@@H](Cc1c[nH]c2ccccc12)C(=O)O` [tryptophan], the viability at 5000 µM in the series on HEK 293 cells [1] (HEK293, 3 h) came out at 66%. The “protection of cell survival” value in the series on HEK 293 cells [1] (amino acid supplement 5 mM) was “increase cell survival to almost the same level as proline”.
Regarding `N[C@@H](Cc1ccc(O)cc1)C(=O)O` [tyrosine, reference compound], the viability at 5000 µM in the series with HEK 293 cells [1] (setting [5]) worked out at 41%.
`CC(C)[C@H](N)C(=O)O` [valine, reference compound]: the viability at 5000 µM in the series on HEK 293 cells [1] (setting [5]) worked out at 44%.

B1: PRODH (Homo sapiens) (protein)
chain: MALRRALPALRPCIPRFVPLSTAPASREQPAAGPAAVPGGGSATAVRPPVPAVDFGNAQEAYRSRRTWELARSLLVLRLCAWPALLARHEQLLYVSRKLLGQRLFNKLMKMTFYGHFVAGEDQESIQPLLRHYRAFGVSAILDYGVEEDLSPEEAEHKEMESCTSAAERDGSGTNKRDKQYQAHWAFGDRRNGVISARTYFYANEAKCDSHMETFLRCIEASGRVSDDGFIAIKLTALGRPQFLLQFSEVLAKWRCFFHQMAVEQGQAGLAAMDTKLEVAVLQESVAKLGIASRAEIEDWFTAETLGVSGTMDLLDWSSLIDSRTKLSKHLVVPNAQTGQLEPLLSRFTEEEELQMTRMLQRMDVLAKKATEMGVRLMVDAEQTYFQPAISRLTLEMQRKFNVEKPLIFNTYQCYLKDAYDNVTLDVELARREGWCFGAKLVRGAYLAQERARAAEIGYEDPINPTYEATNAMYHRCLDYVLEELKHNAKAKVMVASHNEDTVRFALRRMEELGLHPADHRVYFGQLLGMCDQISFPLGQAGYPVYKYVPYGPVMEVLPYLSRRALENSSLMKGTHRERQLLWLELLRRLRTGNLFHRPA
B1: the Km in series [4] stood at 14 ± 0.5 mM.

What is called Km is the substrate concentration at which the rate is half of its maximum.

The values are drawn from patent US20110158924A1, “PHOTO-PROTECTIVE DERMATOLOGICAL FORMULATIONS” (DermaPlus, Inc., priority 2007, published 2011).
